In ChEMBL document CHEMBL4414662, “Cytotoxic Kendomycins Containing the Carbacylic Ansa Scaffold from the Marine-Derived Verrucosispora sp. SCSIO 07399” (J Nat Prod, 2019):
Values after ≈ are worked out from the molar mass of the structure shown.

How the values were obtained:
L02 = assay: Cytotoxicity against human L02 cells assessed as reduction in cell viability by MTT assay; assay type: cell-based
[1] = Cytotoxicity against HUVEC12 assessed as reduction in cell viability by MTT assay; settings: Homo sapiens
HeLa = assay: Antiproliferative activity against human HeLa cells assessed as reduction in cell viability by MTT assay; assay type: functional, cell-based
MCF7 = assay: Antiproliferative activity against human MCF7 cells assessed as reduction in cell viability by MTT assay; assay type: functional, cell-based
HepG2 = assay: Antiproliferative activity against human HepG2 cells assessed as reduction in cell viability by MTT assay; assay type: functional, cell-based
RKO = assay: Antiproliferative activity against human RKO cells assessed as reduction in cell viability by MTT assay; assay type: functional, cell-based
MGC-803 = assay: Antiproliferative activity against human MGC803 cells assessed as reduction in cell viability by MTT assay; assay type: functional, cell-based
Enterococcus faecalis = assay: Antimicrobial activity against Enterococcus faecalis ATCC 29212 by CLSI based two-fold serial dilution method; assay type: functional
Bacillus thuringiensis = assay: Antibacterial activity against Bacillus thuringiensis BT01 by CLSI based two-fold serial dilution method; assay type: functional
A549 = assay: Antiproliferative activity against human A549 cells assessed as reduction in cell viability by MTT assay; assay type: functional, cell-based
Bacillus subtilis = assay: Antibacterial activity against Bacillus subtilis BS01 by CLSI based two-fold serial dilution method; assay type: functional
Staphylococcus aureus [2] = assay: Antibacterial activity against methicillin-resistant Staphylococcus aureus shhs-A1 by CLSI based two-fold serial dilution method; assay type: functional
Staphylococcus aureus [3] = assay: Antibacterial activity against Staphylococcus aureus ATCC […] by CLSI based two-fold serial dilution method; assay type: functional; settings: ATCC 29213
Staphylococcus aureus [4] = assay: Antibacterial activity against Staphylococcus aureus 745524 by CLSI based two-fold serial dilution method; assay type: functional

SMILES | IC50 (L02) [µM] | IC50 [1] [µM] | IC50 (HeLa) [µM] | IC50 (MCF7) [µM] | IC50 (HepG2) [µM] | IC50 (RKO) [µM] | IC50 (MGC-803) [µM] | MIC (Enterococcus faecalis) [µg/mL] | MIC (Bacillus thuringiensis) [µg/mL] | IC50 (A549) [µM] | MIC (Bacillus subtilis) [µg/mL] | MIC (Staphylococcus aureus [2]) [µg/mL] | MIC (Staphylococcus aureus [3]) [µg/mL] | MIC (Staphylococcus aureus [4]) [µg/mL]
COc1cccc2c1C(=O)c1c(O)c3c(c(O)c1C2=O)C[C@@](O)(C(=O)CO)C[C@@H]3O[C@H]1C[C@H](N)[C@H](O)[C@H](C)O1 [DOXORUBICIN] | 8.6 | 7.2 | 0.8 | 0.8 | 0.7 | 1.5 | 3.6 | – | – | – | – | – | – | –
CSC1=C2C3=CC(=O)C(O)=C2[C@@H]2O[C@H](CC[C@H](C)/C=C(\C)C[C@@H](C)C[C@H](C)[C@]1(O)O3)[C@H](C)[C@H](O)[C@H]2C | 2.2 | 6 | 5.4 | 2.3 | 6.7 | 3.8 | 8.9 | 0.5 (≈ 0.964 µM) | 0.5 (≈ 0.964 µM) | 6.8 | 2 (≈ 3.86 µM) | 1 (≈ 1.93 µM) | 0.5 (≈ 0.964 µM) | 1 (≈ 1.93 µM)
CC1(C)S[C@@H]2[C@H](NC(=O)[C@H](N)c3ccccc3)C(=O)N2[C@H]1C(=O)O [AMPICILLIN] | – | – | – | – | – | – | – | 2 (≈ 5.72 µM) | 32 (≈ 91.6 µM) | – | 0.25 (≈ 0.715 µM) | 1 (≈ 2.86 µM) | 2 (≈ 5.72 µM) | –
C/C1=C\[C@@H](C)CC[C@H]2O[C@@H](C3=C(O)C(=O)C=C4O[C@](O)(C=C43)[C@@H](C)C[C@H](C)C1)[C@H](C)[C@@H](O)[C@H]2C | 7.4 | 6 | 4.9 | 5.1 | 22 | 6.1 | 3.3 | 2 (≈ 4.23 µM) | 1 (≈ 2.12 µM) | 8 | 2 (≈ 4.23 µM) | 2 (≈ 4.23 µM) | 0.5 (≈ 1.06 µM) | 1 (≈ 2.12 µM)
CN[C@H](CC(C)C)C(=O)N[C@H]1C(=O)N[C@@H](CC(N)=O)C(=O)N[C@H]2C(=O)N[C@H]3C(=O)N[C@H](C(=O)N[C@H](C(=O)O)c4cc(O)cc(O)c4-c4cc3ccc4O)[C@H](O)c3ccc(c(Cl)c3)Oc3cc2cc(c3O[C@@H]2O[C@H](CO)[C@@H](O)[C@H](O)[C@H]2O[C@H]2C[C@](C)(N)[C@H](O)[C@H](C)O2)Oc2ccc(cc2Cl)[C@H]1O [VANCOMYCIN] | – | – | – | – | – | – | – | – | 2 (≈ 1.38 µM) | – | 1 (≈ 0.69 µM) | – | – | –
CC(=O)N[C@@H](CSC1=C2C3=CC(=O)C(O)=C2[C@@H]2O[C@H](CC[C@H](C)/C=C(\C)C[C@@H](C)C[C@H](C)[C@]1(O)O3)[C@H](C)[C@H](O)[C@H]2C)C(=O)O | 6.2 | > 50 | 7.1 | 13 | 44 | 34 | 7.1 | 4 (≈ 6.31 µM) | 2 (≈ 3.16 µM) | 26 | 8 (≈ 12.6 µM) | 4 (≈ 6.31 µM) | 1 (≈ 1.58 µM) | 2 (≈ 3.16 µM)
NC[C@H]1O[C@H](O[C@H]2[C@H](O)[C@@H](O[C@H]3O[C@H](CO)[C@@H](O)[C@H](N)[C@H]3O)[C@H](N)C[C@@H]2N)[C@H](O)[C@@H](O)[C@@H]1O [KANAMYCIN] | – | – | – | – | – | – | – | 32 (≈ 66 µM) | 8 (≈ 16.5 µM) | – | 8 (≈ 16.5 µM) | 64 (≈ 132 µM) | 16 (≈ 33 µM) | 64 (≈ 132 µM)
